Non-standard residues stand in square brackets, D forms with d. Residues, ends and D or L forms follow the SMILES beside them. pY = N[C@@H](Cc1ccc(OP(=O)(O)O)cc1)C(=O)O

The source of these data is PMC12951562, “SH2scan: Mapping SH2 Domain-Ligand Binding Selectivity for Inhibitors and Degraders” (Journal of Medicinal Chemistry, 2026).

Assay in all cases: biochemical
Common to all, as to format: binding

In one assay the target is T1, PIK3R2(SH2dom.N-term.) (Homo sapiens, UniProt O00459).
T1 construct: SH2dom.N-term. denotes SH2 domain closest to N-terminus of protein; made in house; host or cells: HEK293 (transient transfection, unpurified extract)

The target of the next assay is T2, PIK3R3(SH2dom.N-term.) (Homo sapiens, UniProt Q92569).
T2 construct: SH2dom.N-term. denotes SH2 domain closest to N-terminus of protein; made in house; host or cells: HEK293 (transient transfection, unpurified extract)

In a further assay the target is T3, PIK3R1(SH2dom.N-term.) (Homo sapiens, UniProt P27986).
T3 construct: SH2dom.N-term. denotes SH2 domain closest to N-terminus of protein; made in house; host or cells: HEK293 (transient transfection, unpurified extract)

Another assay addresses T4, RASA1(SH2dom.N-term.) (Homo sapiens, UniProt P20936).
T4 construct: SH2dom.N-term. denotes SH2 domain closest to N-terminus of protein; made in house; host or cells: HEK293 (transient transfection), unpurified extract
T4 sequence (P20936 181-272 limits assumed): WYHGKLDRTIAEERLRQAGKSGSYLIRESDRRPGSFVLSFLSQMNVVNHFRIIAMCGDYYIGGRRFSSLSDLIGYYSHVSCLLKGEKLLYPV

A further assay concerns the target T5, FRK (Homo sapiens, UniProt P42685).
T5 construct: the DNA-tagged SH2 domain concentrations used in this study were <0.1 nM; made in house; host or cells: HEK293 (transient transfection; unpurified extract)
As to conditions: dose-response; read-out: KD.

Another assay deals with T6, BLK (Homo sapiens, UniProt P51451).
T6 construct: the DNA-tagged SH2 domain concentrations used in this study were <0.1 nM; made in house; host or cells: HEK293 (transient transfection; unpurified extract)
The conditions noted are these: dose-response; read-out: KD.

The target in the next assay is T7, FYN (Homo sapiens, UniProt P06241).
T7 construct: the DNA-tagged SH2 domain concentrations used in this study were <0.1 nM; made in house; host or cells: HEK293 (transient transfection; unpurified extract)
As to conditions: dose-response; read-out: KD.

Another assay concerns the target T8, YES (Homo sapiens, UniProt P07947).
T8 construct: the DNA-tagged SH2 domain concentrations used in this study were <0.1 nM; made in house; host or cells: HEK293 (transient transfection; unpurified cell extract)
The conditions noted are these: dose-response; read-out: KD.

In a further assay the target is T9, PTPN6(SH2dom.N-term.) (Homo sapiens, UniProt P29350).
T9 construct: SH2dom.N-term. denotes SH2 domain closest to N-terminus of protein; made in house; host or cells: HEK293 (transient transfection, unpurified extract)
T9 sequence (P29350 4-100 limits assumed): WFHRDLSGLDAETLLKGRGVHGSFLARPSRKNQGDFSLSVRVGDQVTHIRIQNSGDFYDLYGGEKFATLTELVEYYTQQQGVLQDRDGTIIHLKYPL

Another assay deals with T10, HSH2D (Homo sapiens, UniProt Q96JZ2).
T10 construct: the DNA-tagged SH2 domain concentrations used in this study were <0.1 nM; made in house; host or cells: HEK293 (transient transfection, unpurified extract)
T10 sequence (Q96JZ2 34-125 limits assumed): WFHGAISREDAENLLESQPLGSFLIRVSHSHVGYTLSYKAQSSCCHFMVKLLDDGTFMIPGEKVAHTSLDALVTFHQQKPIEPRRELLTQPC

The target in a further assay is T11, GADS (Homo sapiens, UniProt O75791).
T11 construct: the DNA-tagged SH2 domain concentrations used in this study were <0.1 nM; made in house; host or cells: HEK293 (transient transfection; unpurified extract)
T11 sequence (O75791 58-149 limits assumed): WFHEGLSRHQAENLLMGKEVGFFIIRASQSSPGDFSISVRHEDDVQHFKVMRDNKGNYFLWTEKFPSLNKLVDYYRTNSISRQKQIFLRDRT

T6 sequence (P51451 124-220 limits assumed): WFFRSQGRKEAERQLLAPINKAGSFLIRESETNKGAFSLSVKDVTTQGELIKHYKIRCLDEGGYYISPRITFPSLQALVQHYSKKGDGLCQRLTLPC
T8 sequence (P07947 158-255 limits assumed): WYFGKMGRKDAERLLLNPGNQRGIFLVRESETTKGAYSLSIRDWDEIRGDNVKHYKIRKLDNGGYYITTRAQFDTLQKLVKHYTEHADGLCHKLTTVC
T3 sequence (P27986 333-428 limits assumed): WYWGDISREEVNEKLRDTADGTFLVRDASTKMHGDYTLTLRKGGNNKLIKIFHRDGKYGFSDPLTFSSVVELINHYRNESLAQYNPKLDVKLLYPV
T5 sequence (P42685 116-208 limits assumed): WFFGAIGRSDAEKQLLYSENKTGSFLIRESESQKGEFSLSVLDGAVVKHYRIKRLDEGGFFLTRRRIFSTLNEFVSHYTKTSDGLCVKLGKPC
T7 sequence (P06241 149-246 limits assumed): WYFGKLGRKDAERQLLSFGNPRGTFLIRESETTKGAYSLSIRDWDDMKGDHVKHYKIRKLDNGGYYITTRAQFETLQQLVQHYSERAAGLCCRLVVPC
T1 sequence (O00459 330-425 limits assumed): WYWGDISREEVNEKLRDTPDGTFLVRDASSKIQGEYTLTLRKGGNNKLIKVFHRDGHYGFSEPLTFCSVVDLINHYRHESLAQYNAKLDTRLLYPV

On to `CSCC[C@H](NC(=O)[C@H](CC(=O)O)NC(=O)[C@H](CC(C)C)NC(=O)[C@H](CCSC)NC(=O)[C@@H]1CCCN1C(=O)[C@@H](NC(=O)[C@H](Cc1ccc(OP(=O)(O)O)cc1)NC(=O)[C@H](CC(=O)O)NC(=O)[C@@H](NC(=O)[C@H](CO)NC(=O)[C@H](CCC(=O)O)NC(=O)[C@H](CC(=O)O)NC(=O)[C@H](CCCCN)NC(=O)[C@H](CO)NC(=O)[C@H](CCSC)NC(=O)[C@H](CC(=O)O)NC(C)=O)C(C)C)C(C)C)C(=O)N[C@@H](CCCCN)C(N)=O` (Ac-DMSKDESVD[pY]VPMLDMK-NH2), for which the Kd on PIK3R2(SH2dom.N-term.) amounted to 46.7 ± 6.22 nM; on PIK3R3(SH2dom.N-term.) it was 78.5 ± 26.1 nM; at PIK3R1(SH2dom.N-term.), 41.2 ± 9.77 nM.

Molecule `CC[C@H](C)[C@H](NC(=O)[C@H](CC(N)=O)NC(=O)[C@H](CCC(=O)O)NC(=O)[C@H](CCC(=O)O)NC(=O)[C@H](CCC(=O)O)NC(C)=O)C(=O)N[C@@H](Cc1ccc(OP(=O)(O)O)cc1)C(=O)N[C@@H](CO)C(=O)N[C@H](C(=O)N1CCC[C@H]1C(=O)N[C@@H](Cc1c[nH]cn1)C(=O)N[C@@H](CC(=O)O)C(=O)N[C@@H](CO)C(=O)N[C@H](C(N)=O)[C@@H](C)O)C(C)C` (Ac-EEENI[pY]SVPHDST-NH2) registered a Kd on RASA1(SH2dom.N-term.) of 472 ± 309 nM.

Take `CC[C@H](C)[C@H](NC(=O)[C@@H]1CCCN1C(=O)[C@@H](NC(=O)[C@H](CCC(=O)O)NC(=O)[C@H](CCC(=O)O)NC(=O)[C@H](Cc1ccc(OP(=O)(O)O)cc1)NC(=O)[C@H](CCC(N)=O)NC(=O)[C@@H]1CCCN1C(=O)[C@H](CCC(=O)O)NC(C)=O)[C@@H](C)CC)C(=O)N[C@@H](CCCCN)C(=O)N[C@@H](CCC(N)=O)C(N)=O` (Ac-EPQ[pY]EEIPIKQ-NH2): the Kd at FRK turned out to be 6980 ± 1930 nM.

Turning to `CC[C@H](C)[C@H](NC(=O)[C@@H]1CCCN1C(=O)[C@@H](NC(=O)[C@H](CCC(=O)O)NC(=O)[C@H](CCC(=O)O)NC(=O)[C@H](Cc1ccc(OP(=O)(O)O)cc1)NC(=O)[C@H](CCC(N)=O)NC(=O)[C@@H]1CCCN1C(=O)[C@H](CCC(=O)O)NC(C)=O)[C@@H](C)CC)C(=O)N[C@@H](Cc1ccc(O)cc1)C(=O)N[C@@H](CC(C)C)C(=O)N[C@@H](CCCCN)C(N)=O` (Ac-EPQ[pY]EEIPIYLK-NH2), the values for the Kd on BLK, on FYN and on YES were 488 ± 188 nM, 31.8 ± 2.15 nM and 234 ± 37.6 nM, respectively.

For `CC(=O)N[C@@H](CCC(=O)O)C(=O)N[C@@H](CCC(N)=O)C(=O)N[C@@H](CC(=O)O)C(=O)N1CCC[C@H]1C(=O)N[C@@H](CCC(N)=O)C(=O)N[C@@H](CCC(=O)O)C(=O)N[C@H](C(=O)N[C@H](C(=O)N[C@@H](Cc1ccc(OP(=O)(O)O)cc1)C(=O)N[C@@H](C)C(=O)N[C@@H](CCC(N)=O)C(=O)N[C@@H](CC(C)C)C(=O)N[C@@H](CC(N)=O)C(=O)N[C@@H](Cc1c[nH]cn1)C(N)=O)[C@@H](C)O)C(C)C` (Ac-EQDPQEVT[pY]AQLNH-NH2), the Kd at PTPN6(SH2dom.N-term.) came out at 3860 ± 864 nM.

On to `CSCC[C@H](NC(=O)[C@H](Cc1ccc(OP(=O)(O)O)cc1)NC(=O)[C@H](CC(=O)O)NC(=O)[C@H](CO)NC(C)=O)C(=O)N[C@@H](CC(N)=O)C(=O)N[C@@H](CCSC)C(=O)N[C@H](C(=O)N1CCC[C@H]1C(=O)N[C@@H](CCCNC(=N)N)C(=O)N[C@@H](CCCNC(=N)N)C(=O)N1CCC[C@H]1C(N)=O)[C@@H](C)O` (Ac-SD[pY]MNMTPRRP-NH2), for which the Kd was 873 ± 159 nM on HSH2D and 244 ± 73.3 nM at GADS.
